Reference: patent US11541056B2, “3-hydroxy-N-(3-(7H-pyrrolo[2,3-d]pyrimidin-4-yl)phenyl)pyrrolidine-1-carboxamide derivatives” (NOVARTIS AG, priority 2018, dated 2023)

Tested on: OCI-LY3 cells
Experiment: Resazurin cell viability assay in DLBCL cells (OCI-LY3)
Type: cell-based
Settings: Homo sapiens, OCI-Ly3, 72 h, OCI-LY3 cells (BTK independent), 50% growth inhibition, read-out: OCI-LY3 Prol GI50
Method: Compounds of the invention were tested in the following cellular assays. The terms in Table 1 are defined as follows: DC50 refers to the concentration at which 50% maximal degradation was observed; deg Amax is the extent of degradation and the value refers to the % protein remaining at the concentration at which maximum degradation is seen; Prol GI50 refers to the proliferation data and defines the concentration at which 50% growth inhibition was observed compared to the vehicle treated control at the end of the incubation time. TMD8 cells are BTK dependent and OCI-LY3 cells are BTK independent.
Cell Viability Assay in DLBCL (Diffuse Large B-Cell Lymphoma) Cells:
The effect of the BTK compounds on cell proliferation was measured by a Resazurin (Sigma, #R7017) based cell viability assay. TMD8 (BTK compound sensitive) and OCI-LY3 (BTK compound insensitive) cells were incubated for 72 h at 37° C. and 5% CO2 with the corresponding compound. Resazurin is a non-toxic, cell-permeable substrate that is virtually non-fluorescent. Upon entering living cells, Resazurin (Sigma, #R7017) is reduced to highly fluorescent Resorufin. The metabolic activity was assessed by measuring the fluorescence signal (ex. 530 nm; em. 600 nm).
TMD8 and OCI-Ly3 cells were seeded at day 0 in triplicates at a cell density of 1×10^4 cells per 150 μl/well in a 96-well plate (Costar #3904). Additional plates were prepared, in order to assess the basal metabolic activity of both cell lines at the beginning of the experiment. For these reference plates, Resazurin (Sigma, #R7017) was added to a final concentration of 13 μg/ml 3 h post seeding and was incubated for 2 h at 37° C. and 5% CO2. Following incubation, the fluorescent signal intensity of the 96-well plates was measured on a Mithras LB940 multimode plate reader at 530/600 nm (Berthold Technologies, Germany).
In parallel, 3 h post-seeding, test-plates were treated with compound at various concentrations, or with vehicle (DMSO) alone for 3 days. The compound addition to the plates was performed by using a HP D300 digital dispenser (TECAN, Switzerland). The compounds were tested in triplicate, 8-point serial dilution (1:4), with a start concentration of 10 μM for OCI-LY3 and 1 μM for the TMD8 cells, respectively. To assess the relative proliferation of the cells, Resazurin was added to each well directly to the medium to a final concentration of 13 μg/ml. The plates were incubated for 2 h at 37° C. and 5% CO2 to result in a 72 h endpoint. Following incubation, the fluorescent signal intensity of the 96-well plates were measured on a Mithras LB940 multimode plate reader at 530/600 nm (Berthold Technologies, Germany). The formation of Resorufin dye directly correlates with the number of metabolically active cells. For each triplicate treatment the mean and standard deviation were calculated and analyzed via curve fitting software to determine the respective compound concentration resulting in 50% growth inhibition (GI50) values. For each compound GI50 values were typically determined from at least 2 entirely independent experiments.
OCI-LY3 cells were acquired through a license agreement with University Health Network, Toronto, Canada. Cells are cultivated in RPMI1640 media (Gibco, #61870-010, lot. 1894759), supplemented with 10% FCS (HyClone, GE #SH30066.03, lot AB217603), 2 mM L-Glutamine (BioConcept, #5-10K50-H, lot. LA03467P), 1 mM Sodium Pyruvate (BioConcept, #5-60F00-H, lot. LB10510P), 10 mM HEPES (Gibco, #15630-056, lot. 1854074), 1% Pen/Strep (BioConcept, #4-01F00-H, lot. LB04235P).

`COc1ccc(C(=O)N2CCC3(CCN(Cc4ccc(-c5cc6c(-c7cc(F)cc(NC(=O)N8C[C@@H](CC(C)C)[C@H](O)C8)c7C)ncnc6[nH]5)cc4)CC3)CC2)cc1N1CCC(=O)NC1=O` (racemic) [Compound 5, trans-rac-N-(3-(6-(4-((9-(3-(2,4-Dioxotetrahydropyrimidin-1(2H)-yl)-4-methoxybenzoyl)-3,9-diazaspiro[5.5]undecan-3-yl)methyl)phenyl)-7H-pyrrolo[2,3-d]pyrimidin-4-yl)-5-fluoro-2-methylphenyl)-3-hydroxy-4-isobutylpyrrolidine-1-carboxamide] and `COc1ccc(C(=O)N2CCC3(CCN(Cc4ccc(-c5cc6c(-c7cc(F)cc(NC(=O)N8C[C@H](CC(C)C)[C@@H](O)C8)c7C)ncnc6[nH]5)cc4)CC3)CC2)cc1N1CCC(=O)NC1=O` [Compound 6, (3R,4S)—N-(3-(6-(4-((9-(3-(2,4-Dioxotetrahydropyrimidin-1(2H)-yl)-4-methoxybenzoyl)-3,9-diazaspiro[5.5]undecan-3-yl)methyl)phenyl)-7H-pyrrolo[2,3-d]pyrimidin-4-yl)-5-fluoro-2-methylphenyl)-3-hydroxy-4-isobutylpyrrolidine-1-carboxamide] are within 1.5-fold of each other in GI50: 7.46 µM for the first, 9.92 µM for the second.

`COc1ccc(C(=O)N2CCC3(CCN(Cc4ccc(-c5cc6c(-c7cc(F)cc(NC(=O)N8C[C@@H](CC(C)C)[C@H](O)C8)c7C)ncnc6[nH]5)cc4)CC3)CC2)cc1N1CCC(=O)NC1=O` [Compound 1, (3S,4R)—N-(3-(6-(4-((9-(3-(2,4-Dioxotetrahydropyrimidin-1(2H)-yl)-4-methoxybenzoyl)-3,9-diazaspiro[5.5]undecan-3-yl)methyl)phenyl)-7H-pyrrolo[2,3-d]pyrimidin-4-yl)-5-fluoro-2-methylphenyl)-3-hydroxy-4-isobutylpyrrolidine-1-carboxamide] and `COc1ccc(C(=O)N2CCC3(CCN(CCc4ccc(-c5cc6c(-c7cc(F)cc(NC(=O)N8C[C@H](CC(C)C)[C@@H](O)C8)c7C)ncnc6[nH]5)cc4)CC3)CC2)cc1N1CCC(=O)NC1=O` [Compound 15, (3R,4S)—N-(3-(6-(4-(2-(9-(3-(2,4-Dioxotetrahydropyrimidin-1(2H)-yl)-4-methoxybenzoyl)-3,9-diazaspiro[5.5]undecan-3-yl)ethyl)phenyl)-7H-pyrrolo[2,3-d]pyrimidin-4-yl)-5-fluoro-2-methylphenyl)-3-hydroxy-4-isobutylpyrrolidine-1-carboxamide] are within 1.5-fold of each other in GI50: 7.12 µM for the first, 7.25 µM for the second.

First: COc1ccc(C(=O)N2CCC(OCCN3CCN(Cc4ccc(-c5cc6c(-c7cc(F)cc(NC(=O)N8C[C@H](CC(C)C)[C@@H](O)C8)c7C)ncnc6[nH]5)cc4)CC3)CC2)cc1N1CCC(=O)NC1=O [Compound 2, (3R,4S)—N-(3-(6-(4-((4-(2-((1-(3-(2,4-Dioxotetrahydropyrimidin-1 (2H)-yl)-4-methoxybenzoyl)piperidin-4-yl)oxy)ethyl)piperazin-1-yl)methyl)phenyl)-7H-pyrrolo[2,3-d]pyrimidin-4-yl)-5-fluoro-2-methylphenyl)-3-hydroxy-4-isobutylpyrrolidine-1-carboxamide]
Second: COc1ccc(C(=O)N2CCC(CN3CCN(Cc4ccc(-c5cc6c(-c7cc(F)cc(NC(=O)N8C[C@H](CC(C)C)[C@@H](O)C8)c7C)ncnc6[nH]5)cc4)CC3)CC2)cc1N1CCC(=O)NC1=O [Compound 12, (3R,4S)—N-(3-(6-(4-((4-((1-(3-(2,4-Dioxotetrahydropyrimidin-1(2H)-yl)-4-methoxybenzoyl)piperidin-4-yl)methyl)piperazin-1-yl)methyl)phenyl)-7H-pyrrolo[2,3-d]pyrimidin-4-yl)-5-fluoro-2-methylphenyl)-3-hydroxy-4-isobutylpyrrolidine-1-carboxamide]
The GI50 of the first is lower: 7.73 µM for the first, greater than 10 µM for the second.

Compared with `COc1ccc(C(=O)N2CCC(OC3CCN(Cc4ccc(-c5cc6c(-c7cc(F)cc(NC(=O)N8C[C@H](CC(C)C)[C@@H](O)C8)c7C)ncnc6[nH]5)cc4)CC3)CC2)cc1N1CCC(=O)NC1=O` [Compound 8, (3R,4S)—N-(3-(6-(4-((4-((1-(3-(2,4-Dioxotetrahydropyrimidin-1(2H)-yl)-4-methoxybenzoyl)piperidin-4-yl)oxy)piperidin-1-yl)methyl)phenyl)-7H-pyrrolo[2,3-d]pyrimidin-4-yl)-5-fluoro-2-methylphenyl)-3-hydroxy-4-isobutylpyrrolidine-1-carboxamide], `COc1ccc(C(=O)N2CCC(OC3CCN(CCc4ccc(-c5cc6c(-c7cc(F)cc(NC(=O)N8C[C@H](CC(C)C)[C@@H](O)C8)c7C)ncnc6[nH]5)cc4)CC3)CC2)cc1N1CCC(=O)NC1=O` [Compound 13, (3R,4S)—N-(3-(6-(4-(2-(4-((1-(3-(2,4-Dioxotetrahydropyrimidin-1(2H)-yl)-4-methoxybenzoyl)piperidin-4-yl)oxy)piperidin-1-yl)ethyl)phenyl)-7H-pyrrolo[2,3-d]pyrimidin-4-yl)-5-fluoro-2-methylphenyl)-3-hydroxy-4-isobutylpyrrolidine-1-carboxamide] is lower in GI50: greater than 10 µM for the first, 9.22 µM for the second.

First: COc1ccc(C(=O)N2CCC(CN3CCC(Oc4ccc(-c5cc6c(-c7cc(F)cc(NC(=O)N8C[C@H](CC(C)C)[C@@H](O)C8)c7C)ncnc6[nH]5)cc4)CC3)CC2)cc1N1CCC(=O)NC1=O [Compound 11, (3R,4S)—N-(3-(6-(4-((1-((1-(3-(2,4-Dioxotetrahydropyrimidin-1 (2H)-yl)-4-methoxybenzoyl)piperidin-4-yl)methyl)piperidin-4-yl)oxy)phenyl)-7H-pyrrolo[2,3-d]pyrimidin-4-yl)-5-fluoro-2-methylphenyl)-3-hydroxy-4-isobutylpyrrolidine-1-carboxamide]
Second: COc1ccc(C(=O)N2CCC(CCN3CCC(OCc4ccc(-c5cc6c(-c7cc(F)cc(NC(=O)N8C[C@H](CC(C)C)[C@@H](O)C8)c7C)ncnc6[nH]5)cc4)CC3)CC2)cc1N1CCC(=O)NC1=O [Compound 22, (3R,4S)—N-(3-(6-(4-(((1-(2-(1-(3-(2,4-Dioxotetrahydropyrimidin-1 (2H)-yl)-4-methoxybenzoyl)piperidin-4-yl)ethyl)piperidin-4-yl)oxy)methyl)phenyl)-7H-pyrrolo[2,3-d]pyrimidin-4-yl)-5-fluoro-2-methylphenyl)-3-hydroxy-4-isobutylpyrrolidine-1-carboxamide]
The GI50 of the first is 1.9-fold lower: 3.51 µM for the first, 6.68 µM for the second.

In the case of `COc1ccc(C(=O)N2CCC3(CCN(CCc4ccc(-c5cc6c(-c7cc(F)cc(NC(=O)N8C[C@@H](CC(C)C)[C@H](O)C8)c7C)ncnc6[nH]5)cc4)CC3)CC2)cc1N1CCC(=O)NC1=O` [Compound 19, (3S,4R)—N-(3-(6-(4-(2-(9-(3-(2,4-dioxotetrahydropyrimidin-1(2H)-yl)-4-methoxybenzoyl)-3,9-diazaspiro[5.5]undecan-3-yl)ethyl)phenyl)-7H-pyrrolo[2,3-d]pyrimidin-4-yl)-5-fluoro-2-methylphenyl)-3-hydroxy-4-isobutylpyrrolidine-1-carboxamide], the GI50 is reported as greater than 10 µM.
